Measured values as given in ChEMBL document CHEMBL1149305, “Charge and substituent effects on affinity and metabolism of benzbromarone-based CYP2C19 inhibitors” (J Med Chem, 2004).

What was measured:
Cytochrome P450 2C19 = Cytochrome P450 2C19 (Homo sapiens, UniProt P33261); test: Inhibition of human CYP2C19; type: ADME
[1] = Dissociation constant, pKa of the compound; type: physicochemical
Cytochrome P450 2C9 = Cytochrome P450 2C9 (Homo sapiens, UniProt P11712); test: Inhibition of human CYP2C9
Sequence of Cytochrome P450 2C9 (P11712 whole entry): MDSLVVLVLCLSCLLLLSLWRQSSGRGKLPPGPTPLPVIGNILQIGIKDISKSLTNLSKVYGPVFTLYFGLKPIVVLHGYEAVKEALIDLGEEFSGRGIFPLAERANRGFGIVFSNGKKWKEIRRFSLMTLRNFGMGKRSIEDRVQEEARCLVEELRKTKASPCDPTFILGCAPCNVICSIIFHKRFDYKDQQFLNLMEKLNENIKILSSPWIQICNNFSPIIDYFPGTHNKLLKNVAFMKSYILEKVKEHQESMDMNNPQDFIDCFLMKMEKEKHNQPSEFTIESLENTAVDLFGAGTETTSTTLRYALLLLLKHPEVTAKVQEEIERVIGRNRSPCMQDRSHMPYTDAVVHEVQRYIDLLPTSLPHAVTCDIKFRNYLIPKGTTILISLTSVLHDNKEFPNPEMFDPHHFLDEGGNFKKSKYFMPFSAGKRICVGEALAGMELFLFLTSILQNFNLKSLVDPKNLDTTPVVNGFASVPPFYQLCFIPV

Sequence of Cytochrome P450 2C19 (P33261 whole entry): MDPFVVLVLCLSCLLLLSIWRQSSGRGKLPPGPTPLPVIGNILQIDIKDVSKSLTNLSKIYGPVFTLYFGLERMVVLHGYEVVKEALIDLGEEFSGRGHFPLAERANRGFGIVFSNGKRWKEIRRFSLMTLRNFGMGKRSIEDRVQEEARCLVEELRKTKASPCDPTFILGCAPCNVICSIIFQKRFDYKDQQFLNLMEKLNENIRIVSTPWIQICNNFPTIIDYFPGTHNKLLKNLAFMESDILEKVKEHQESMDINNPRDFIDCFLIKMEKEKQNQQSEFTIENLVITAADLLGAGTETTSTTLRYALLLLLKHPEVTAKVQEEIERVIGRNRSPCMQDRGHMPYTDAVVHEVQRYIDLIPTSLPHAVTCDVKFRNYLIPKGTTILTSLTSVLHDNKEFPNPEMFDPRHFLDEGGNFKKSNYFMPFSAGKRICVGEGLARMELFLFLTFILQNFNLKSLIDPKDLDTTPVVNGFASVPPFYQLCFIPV

Row | SMILES | Ki (Cytochrome P450 2C19) | pKa [1] | Activity [1] | Ki (Cytochrome P450 2C9)
1 | Cc1oc2ccccc2c1C(=O)c1ccc(O)cc1 | 2500 nM | 8.4 | – | –
2 | CCc1oc2ccccc2c1C(=O)Cc1cc(Br)c(O)c(Br)c1 | 1600 nM | 8.6 | – | –
3 | Cc1oc2ccccc2c1C(=O)c1cc(Br)c(O)c(Br)c1 | 2400 nM | – | – | –
4 | Cc1oc2ccccc2c1C(=O)c1cccc(O)c1 | 4500 nM | 8.4 | – | –
5 | CCc1oc2ccccc2c1C(=O)c1cc(Cl)nc(Cl)c1 | 13000 nM | – | Not Active | –
6 | CCc1oc2ccccc2c1C(=O)c1ccc(N(C)C)cc1 | 3700 nM | – | Not Active | –
7 | Cc1oc2ccccc2c1C(=O)C1CCCCC1 | 13000 nM | – | Not Active | –
8 | Cc1oc2ccccc2c1C(=O)c1cc(I)c(O)c(I)c1 | 7200 nM | 5.2 | – | –
9 | CCc1oc2ccccc2c1C(O)c1cc(Br)c(O)c(Br)c1 (configuration not stated) | 300 nM | 8.8 | – | –
10 | COc1ccc(C(=O)c2c(C)oc3ccccc23)cc1 | 4500 nM | – | Not Active | –
11 | CCc1oc2ccccc2c1C(=O)c1cc(Br)c(O)c(Br)c1 [BENZBROMARONE] | – | 4.5 | – | –
12 | CCc1oc2ccccc2c1C(=O)c1cc(C)c(O)c(C)c1 | 33 nM | 8.5 | – | 40 nM
13 | CCc1oc2ccccc2c1C(=O)c1cc(C)c(OC)c(C)c1 | 250 nM | – | Not Active | –
14 | CCc1oc2ccccc2c1C(=O)c1cc(Br)c(OC)c(Br)c1 | 370 nM | – | Not Active | –
